The record followed here is ChEMBL document CHEMBL1140786, “Synthesis of 4,5,6,7-tetrahydrothieno[3,2-c]pyridines and comparison with their isosteric 1,2,3,4-tetrahydroisoquinolines as inhibitors of phenylethanolamine N-methyltransferase” (Bioorg Med Chem, 2008).

The target in assay [1] is Alpha-2 adrenergic receptor (Rattus norvegicus). As to the kind of experiment: Displacement of [3H]clonidine from adrenergic alpha-2 receptor in Sprague-Dawley rat cortex.
Assay [2] concerns the target T1, Phenylethanolamine N-methyltransferase (Homo sapiens, UniProt P11086).
T1 sequence (P11086 whole entry): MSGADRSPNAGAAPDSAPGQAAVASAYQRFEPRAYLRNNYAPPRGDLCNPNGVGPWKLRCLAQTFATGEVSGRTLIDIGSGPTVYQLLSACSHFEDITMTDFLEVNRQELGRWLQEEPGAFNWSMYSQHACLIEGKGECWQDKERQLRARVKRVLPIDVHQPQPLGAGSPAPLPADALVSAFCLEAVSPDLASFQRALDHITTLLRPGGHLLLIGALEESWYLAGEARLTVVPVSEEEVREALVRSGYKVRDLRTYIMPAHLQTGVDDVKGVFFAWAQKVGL
Kind of assay: Inhibition of human PNMT by radiochemical assay.

The species entered for another assay is Homo sapiens. As to the kind of experiment: Selectivity of Ki for human PNMT over Ki for rat alpha2 adrenoceptor.
Assay [3] concerns the target Phenylethanolamine N-methyltransferase (Homo sapiens) (UniProt P11086). As to the kind of experiment: Inhibition of human PNMT by radiochemical assay.

With `Cc1cc2c(s1)CCNC2`, the inhibition constant (Ki) in assay [1] turned out to be 0.49 µM.
Regarding `NC(=O)c1cc2c(s1)CCNC2`, affinity in assay [1] was put at a Ki of 4.1 µM.
`NCc1ccsc1`: the Ki in assay [2] came to 110 µM; in assay [1], 32 µM. Besides, in the assay filed under Homo sapiens, the Ratio Ki was determined as 0.29.
With `FC(F)(F)C1CC2SC=CC2CN1` (stereo not drawn), in assay [1], the affinity, expressed as Ki, was 1500 µM.
The same measure, in the same setting: in the case of `BrC1=CC2CNCCC2S1` (stereo not drawn) it was 0.38 µM; in that of `O=[N+]([O-])C1=CC2CNCCC2S1` (stereo not drawn), 18 µM.
Same read-out and setting: in the case of `c1cc2c(s1)CCNC2` it was 1.5 µM; in that of `FC(F)(F)C1Cc2sc3ccccc3c2CN1` (stereo not drawn), above 500 µM; in that of `C[C@@H]1Cc2sc(C#N)cc2CN1`, 47 µM.
In assay [1], `C[C@@H]1Cc2sc([N+](=O)[O-])cc2CN1` came in with an inhibition constant Ki of 13 µM.
As to `CC1Cc2sc3ccccc3c2CN1` (racemic), the inhibitory constant (Ki) in assay [3] amounted to 0.067 µM.
As to `NCc1cccs1`, the inhibition constant (Ki) in assay [2] was 450 µM; in assay [1], 27 µM. Moreover, in the assay filed under Homo sapiens, the Ratio Ki stood at 0.12.
The compound `c1ccc2c(c1)CCNC2` [1,2,3,4-TETRAHYDROISOQUINOLINE] displayed a Ki in assay [3] of 5 µM.
`CC1Cc2sc(Br)cc2CN1` (stereo not drawn) showed a Ki in assay [1] of 2.3 µM. In other words, the single-digit micromolar range.
Same read-out and setting: in the case of `CC(=O)c1cc2c(s1)CCNC2` it was 9.8 µM.
As to `NCCc1cccs1`, the Ki in assay [2] came to 300 µM; in assay [1], 1.2 µM. Moreover, the Ratio Ki in the assay filed under Homo sapiens was 0.004.
In assay [1], `C[C@H]1Cc2sc([N+](=O)[O-])cc2CN1` had a Ki of 29 µM.
As to `CC(=O)c1ccc2c(c1)CNCC2`, the Ki in assay [3] came out at 5 µM.
`NC(=O)c1ccc2c(c1)CNCC2` had a Ki in assay [3] of 72 µM.
As for `N#Cc1cc2c(s1)CCNC2`, the affinity in assay [1] corresponds to a Ki of 16 µM.
Compound `Cc1ccc2c(c1)CNCC2` had an inhibitory constant (Ki) in assay [3] of 2 µM.
`C[C@H]1Cc2sc(C#N)cc2CN1` had an inhibitory constant (Ki) in assay [1] of 130 µM.
Same read-out and setting: in the case of `CC1Cc2ccc(Br)cc2CN1` (racemic) it was 1.1 µM.
The same measure, in the same setting: in the case of `FC(F)(F)C1Cc2sc(Br)cc2CN1` (stereo not drawn) it was above 1000 µM.
Take `NCCc1ccccc1` [PHENETHYLAMINE]: the Ki in assay [3] is 220 µM.
In turn, `CC1CC2SC=CC2CN1` (stereo not drawn) came in with an inhibition constant Ki in assay [1] of 29 µM. That is a double-digit micromolar value.
`CC1Cc2ccccc2CN1` (racemic): in assay [3], the affinity corresponds to a Ki of 1.4 µM.
